# According to patent US20100129343A1, “Use Of A Compound For Enhancing The Expression Of Membrane Proteins On The Cell Surface” (Axentis Pharma AG, priority 2004, published 2010):
# “Also recorded” adds a separate entry of the source.
# Columns and labels:
# Assay type in all cases: cell-based
# HEK293 cells = experiment: FACS propidium iodide staining: cell cycle distribution / apoptosis of HEK293 cells
# Protocol: (§1) Cultured HEK293 cells were transfected with plasmids encoding CFTR or CFTR-ΔF508 (GFP-tagged) and/or co-transfected with plasmids encoding USP4 (or an appropriate control plasmid) by using the CaPO4-precipitation method. Sixteen hours after transfection the cells were treated with varying concentrations of compounds. At a specific time point (here 24 h) the cells are trypsinized, fixed in ethanol, permeabilized and stained with propidium iodide (PI). The stained cells are subjected to FACS analysis
# Transiently transfected HEK293 cells were fixed in ethanol 24 h after transfection as mentioned above and then stained with propidium iodide to label the DNA: the rationale was to examine the distribution of cells in the cell cycle (=to see if the expression of CFTR or of CFTR-ΔF508 was toxic or if the compounds employed killed the cells/drove them into apoptosis).
# One can plot the cell counts against the propidium iodide fluorescence of the transfected cells (such as shown in, for example, FIG. 7b): This gives a peak of cells (denoted by M1) that have a 2n content of DNA (G1-cells), a shoulder of cells that have a DNA content of larger than 2n (denoted by M3 and representing cells that are in S-phase) and a second peak of cells that have a DNA content of 4n (denoted by M2 and representing cells in G2 and M-phase).
# CFTR-ΔF508 [1] = experiment: Immunoblot for GFP-tagged CFTR-ΔF508 expressed in HEK293 cells; details: 16 h, endoglycosidase H treated extract
# Protocol: HEK293 cells (1*10^6 cells) were transfected with plasmids encoding CFTR or CFTR-ΔF508 (GFP-tagged) and/or co-transfected with effector plasmids. After 16h, the cells were treated with the varying concentrations of compounds. After 24h, the cells were harvested in phosphate-buffered saline, lysed by a freeze-thaw cycle and homogenized by sonication. The homogenate was resuspended in reducing Laemmli sample buffer (50 mM Tris.HCl, pH 6.8, 20% glycerol, 0.1% bromphenol blue, 2% SDS and 20 mM dithiothreitol); aliquots (15% of the original culture) were resolved on a denaturing polyacrylamide gel (monomer concentration in the stacking gel and in the running gel 4 and 8% respectively) and electrophoretically transferred to a nitrocellulose membrane. Immunodetection was done with an antiserum directed against GFP as the primary antibody and an anti-rabbit IgG coupled to horseradish peroxidase as the secondary antibody.
# In a first example, Membranes from transfected cells were prepared and immunoblotted for GFP-tagged CFTR or CFTR-ΔF508, respectively (by using an antibody directed against the fluorescent protein).
# The membrane extract was also treated endoglycosidase H. The rationale for this experiment is as follows: membrane proteins are core glycosylated in the endoplasmatic reticulum. Core gylcosylation is sensitive to endoglycosidase H. If the protein has reached the Golgi (and then trafficked to the plasma membrane), it acquires additional sugar moieties and becomes resistant to endoglycosidase H. It is evident from lane 3 in FIG. 6 that endoglycosidase H treatment reduces the apparent size of CFTR; thus, the bulk of the protein is still in the ER. The following lanes examine the expression of CFTR-ΔF508 (all extracts were treated with endoglycosidase H): lane 4 is the control, that is cells expressing CFTR-ΔF508; in lanes 5, 6, 7 and 8 cells expressing CFTR-ΔF508 were treated overnight (i.e. for 16 h) with 100 nM MG132, 20 μM kifunensine, 1 μM and 100 nM bortezomib, respectively.
# CFTR-ΔF508 [2] = experiment: FACS monitoring of GFP-tagged CFTR-ΔF508 expression in HEK293 cells
# Protocol: as §1
# Because CFTR is tagged with a fluorescent protein, expression in individual cells can be monitored by fluorescence activated cell sorting (FACS). By contrast with fluorescence microscopy (where individual cells are picked), FACS allows to survey the entire cell population. In addition, FACS has the advantage that it allows for reasonable sample throughput; finally, automation and scale-up is readily possible. […]
# The original data set is shown on the right hand side of the figures, respectively (see e.g. FIG. 7c): the x-axis is the propidium iodide fluorescence (note that the scale is linear). The y-axis is the GFP-fluorescence (=fluorescence associated with CFTR; note that the scale is logarithmic) and each dot corresponds to a cell. […]
# A2A-receptor = target: T1, A2A-receptor (Rattus norvegicus, UniProt P30543); experiment: [3H]ZM241385 saturation binding to membranes from PC12 cells (endogenous A2A-receptor); details: 100 μM chloroquine for 3h
# T1 construct: PC12 cells (that endogenously express the A2A-receptor); endogenous in cells; host or cells: PC12 (rat pheochromocytoma), membranes
# Protocol: Membranes were prepared from PC12 cells, which had been incubated in the presence or in the absence of 50 μM MG132 or 100 μM chloroquine for 3h, and were incubated in buffer containing the indicated concentrations of [^3H]ZM241385 in the presence of 100 μM GTPγS.
# Membranes (100 μg/assay) that had been prepared from PC12 cells or HEK293 cells transiently transfected with the appropriate plasmids were incubated in a final volume of 0.3 ml containing 50 mM Tris.HCl (pH 8.0), 1 mM EDTA, 5 mM MgCl2, 8 μg/ml adenosine deaminase and concentrations of [^3H]ZM241385 (specific activity ˜20 Ci/mmol) covering the range of 0.2 to 20 nM in the presence of 100 μM GTPγS (Klinger et al., 2002). After 60 min at room temperature, the reaction was terminated by rapid filtration over glass fiber filters. Nonspecific binding was determined in the presence of 10 μM XAC and amounted to 40% at the highest concentration of [^3H]ZM241385. The data points were fitted by non-linear regression to the equation describing a rectangular hyperbola. Assays were performed in duplicate.
# T1 sequence (P30543 whole entry): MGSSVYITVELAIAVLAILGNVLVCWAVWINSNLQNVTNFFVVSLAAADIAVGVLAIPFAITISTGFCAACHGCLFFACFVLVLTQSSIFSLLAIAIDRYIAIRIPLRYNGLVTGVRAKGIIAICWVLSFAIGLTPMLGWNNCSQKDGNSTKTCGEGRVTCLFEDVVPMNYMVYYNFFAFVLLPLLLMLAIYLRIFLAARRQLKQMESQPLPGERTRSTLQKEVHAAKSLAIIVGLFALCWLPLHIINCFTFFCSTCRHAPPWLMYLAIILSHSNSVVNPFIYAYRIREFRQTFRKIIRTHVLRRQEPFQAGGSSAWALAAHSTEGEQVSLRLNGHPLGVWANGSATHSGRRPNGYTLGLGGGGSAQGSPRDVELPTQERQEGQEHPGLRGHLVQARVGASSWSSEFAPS
structure (smiles),measurement,setting,value
"CC(C)C[C@H](NC(=O)[C@H](Cc1ccccc1)NC(=O)c1cnccn1)B(O)O [Bortezomib, N-(2-pyrazine)carbonyl-L-phenylalanine-L-leucine-boronic acid]",cell cycle distribution,"HEK293 cells; 10 nM bortezomib, CFTR-ΔF508 expressing cells",essentially the same as the one shown in control cells
same,peak of the G1-cells (M1),"HEK293 cells; 100 nM Bortezomib, CFTR-ΔF508 expressing cells",greatly reduced
same,number of cells with low propidium iodide fluorescence (apoptotic),HEK293 cells; 100 nM bortezomib,number of cells with low propidium iodide fluorescence increases
same,number of cells with low propidium iodide fluorescence (apoptotic),HEK293 cells; 1 μM Bortezomib,number of cells with low propidium iodide fluorescence increases
same,peak of the G1-cells (M1),"HEK293 cells; 1 μM Bortezomib, CFTR-ΔF508 expressing cells",greatly reduced
same,"cell mortality / apoptosis, general statement","HEK293 cells; within the therapeutic window (Bortezomib), very small dosage (MG132)",no increased cell mortality is observed
same,accumulation of CFTR-ΔF508 (intensity of staining vs control lane),CFTR-ΔF508 [1]; 100 nM bortezomib,led to the accumulation of CFTR-ΔF508; also recorded: more effective than 1 μM bortezomib
same,accumulation of CFTR-ΔF508 (intensity of staining vs control lane),CFTR-ΔF508 [1]; 1 μM bortezomib,led to the accumulation of CFTR-ΔF508
same,CFTR-ΔF508-associated fluorescence,CFTR-ΔF508 [2]; 10 nM bortezomib,expression of CFTR is increased; also recorded: substantially increases the level of CFTR-ΔF508
same,CFTR-ΔF508-associated fluorescence,CFTR-ΔF508 [2]; 100 nM bortezomib,expression of CFTR is increased
"CCN(CC)CCCC(C)Nc1ccnc2cc(Cl)ccc12 (stereo not drawn) [choloroquine, chloroquine]",A2A-receptor levels,A2A-receptor,did not affect the A2A-receptor levels
O=C1N[C@@H]2[C@@H](O)[C@@H](O)[C@H](O)[C@@H](CO)N2C1=O [kifunensine],accumulation of CFTR-ΔF508 (intensity of staining vs control lane),CFTR-ΔF508 [1]; 20 μM kifunensine,led to the accumulation of CFTR-ΔF508
